Key:
Cyperus iria = assay: Preemergence weed control under flooded paddy conditions, CYPIR (Rice Flatsedge); type: in vivo; details: flooded paddy; for CYPIR / herbicidal effect rating, CYPIR: preemergence weeds; for CYPIR: herbicidal effect rating 0-9, three to four weeks after treatment; for herbicidal effect rating, CYPIR / CYPIR herbicidal effect rating: rated three to four weeks after treatment; for CYPIR herbicidal effect rating: preemergence; on herbicidal effect rating, CYPIR: meaning of each grade not given here
[1] = test system: Monochoria vaginalis, Presl.; assay: Preemergence weed control under flooded paddy conditions, MOOVA (Monochoria); type: in vivo; details: flooded paddy; for MOOVA / herbicidal effect rating, MOOVA: preemergence weeds; for MOOVA: herbicidal effect rating 0-9, three to four weeks after treatment; for herbicidal effect rating, MOOVA / MOOVA herbicidal effect rating: rated three to four weeks after treatment; for MOOVA herbicidal effect rating: preemergence; on herbicidal effect rating, MOOVA: meaning of each grade not given here
[2] = test system: Cyperus serotinus, Rottb.; assay: Preemergence weed control under flooded paddy conditions, CYPSE (Flatsedge); type: in vivo; details: for CYPSE / herbicidal effect rating, CYPSE: preemergence weeds; for CYPSE: herbicidal effect rating 0-9, three to four weeks after treatment; for herbicidal effect rating, CYPSE / CYPSE herbicidal effect rating: rated three to four weeks after treatment; for CYPSE herbicidal effect rating: preemergence; on herbicidal effect rating, CYPSE: meaning of each grade not given here
Sagittaria pygmaea, L. = assay: Preemergence weed control under flooded paddy conditions, SAGPY (Arrowhead (Pygmaea)); type: in vivo; details: flooded paddy; for SAGPY / herbicidal effect rating, SAGPY: preemergence weeds; for SAGPY: herbicidal effect rating 0-9, three to four weeks after treatment; for herbicidal effect rating, SAGPY / SAGPY herbicidal effect rating: rated three to four weeks after treatment; for SAGPY herbicidal effect rating: preemergence; on herbicidal effect rating, SAGPY: meaning of each grade not given here
[3] = test system: Oryza sativa, (L.) Tebonnet; assay: Rice tolerance to post-transplant applications under flooded paddy conditions (Example 187), ORYSAT (Rice, Tebonnet); details: for ORYSAT: herbicidal effect rating 0-9, three to four weeks after treatment; for herbicidal effect rating ORYSAT / ORYSAT herbicidal effect rating: rated three to four weeks after treatment
[4] = test system: Echinochloa oryzoides (Ard.) Fritsch.; assay: Preemergence weed control under flooded paddy conditions, ECHORC (Watergrass (Calif.)); type: in vivo; details: flooded paddy; for ECHORC / herbicidal effect rating, ECHORC: preemergence weeds; for ECHORC: herbicidal effect rating 0-9, three to four weeks after treatment; for herbicidal effect rating, ECHORC / ECHORC herbicidal effect rating: rated three to four weeks after treatment; for ECHORC herbicidal effect rating: preemergence; on herbicidal effect rating, ECHORC: meaning of each grade not given here

Compound `CCOCN(C(=O)c1nsc2ccc(-n3c(=O)cc(C(F)(F)F)n(C)c3=O)cc12)S(=O)(=O)Cc1ccccc1` [Example 440, 1,2-Benzisothiazole-3-carboxamide, N-(benzylsulfonyl)-5-[3,6-dihydro-3-methyl-2,6-dioxo-4-(trifluoromethyl)-1(2H)-pyrimidinyl]-N-(ethoxymethyl)-] has a CYPIR (Cyperus iria; 0.0320 kg/ha) of 5.0, a CYPIR (Cyperus iria; 0.0620 kg/ha) of 9.0 and a CYPIR (Cyperus iria; 0.1250 kg/ha) of 9.0. It also gave a CYPIR (Cyperus iria; 0.2500 kg/ha) of 9.0, an MOOVA ([1]; 0.0320 kg/ha) of 7.0 and an MOOVA ([1]; 0.0620 kg/ha) of 9.0. It also gave an MOOVA ([1]; 0.1250 kg/ha) of 9.0, an MOOVA ([1]; 0.2500 kg/ha) of 9.0 and a CYPSE ([2]; 0.0320 kg/ha) of 6.0. The CYPSE ([2]; 0.0620 kg/ha) was 9.0, the CYPSE ([2]; 0.1250 kg/ha) was 9.0 and the CYPSE ([2]; 0.2500 kg/ha) was 9.0. For the same compound, the SAGPY (Sagittaria pygmaea, L.; 0.0320 kg/ha) was 4.0, the SAGPY (Sagittaria pygmaea, L.; 0.0620 kg/ha) was 6.0 and the SAGPY (Sagittaria pygmaea, L.; 0.1250 kg/ha) was 7.0. The SAGPY (Sagittaria pygmaea, L.; 0.2500 kg/ha) was 9.0, the ORYSAT ([3]; 0.0320 kg/ha) was 3.0 and the ORYSAT ([3]; 0.0620 kg/ha) was 4.0. For the same compound, the ORYSAT ([3]; 0.1250 kg/ha) was 4.0, the ORYSAT ([3]; 0.2500 kg/ha) was 4.0 and the ECHORC ([4]; 0.0320 kg/ha) was 5.0. The ECHORC ([4]; 0.0620 kg/ha) was 7.0, the ECHORC ([4]; 0.1250 kg/ha) was 9.0 and the ECHORC ([4]; 0.2500 kg/ha) was 9.0.
`CN(C)C(=O)c1nsc2ccc(-n3c(=O)cc(C(F)(F)F)n(C)c3=O)cc12` [Example 329, 1,2-Benzisothiazole-3-carboxamide, 5-[3,6-dihydro-3-methyl-2,6-dioxo-4-(trifluoromethyl)-1(2H)-pyrimidinyl]-N,N-dimethyl-] was tested, and the “herbicidal effect rating, CYPIR” value (Cyperus iria; Rate 0.0320 kg/ha) was 0.0, the “herbicidal effect rating, CYPIR” value (Cyperus iria; Rate 0.0620 kg/ha) was 0.0 and the “herbicidal effect rating, CYPIR” value (Cyperus iria; Rate 0.1250 kg/ha) was 0.0. The “herbicidal effect rating, CYPIR” value (Cyperus iria; Rate 0.2500 kg/ha) was 0.0, the “herbicidal effect rating, MOOVA” value ([1]; Rate 0.0320 kg/ha) was 9.0 and the “herbicidal effect rating, MOOVA” value ([1]; Rate 0.0620 kg/ha) was 9.0. The “herbicidal effect rating, MOOVA” value ([1]; Rate 0.1250 kg/ha) was 9.0, the “herbicidal effect rating, MOOVA” value ([1]; Rate 0.2500 kg/ha) was 9.0 and the “herbicidal effect rating, CYPSE” value ([2]; Rate 0.0320 kg/ha) was 0.0. The “herbicidal effect rating, CYPSE” value ([2]; Rate 0.0620 kg/ha) was 0.0, the “herbicidal effect rating, CYPSE” value ([2]; Rate 0.1250 kg/ha) was 0.0 and the “herbicidal effect rating, CYPSE” value ([2]; Rate 0.2500 kg/ha) was 0.0. The “herbicidal effect rating, SAGPY” value (Sagittaria pygmaea, L.; Rate 0.0320 kg/ha) was 3.0, the “herbicidal effect rating, SAGPY” value (Sagittaria pygmaea, L.; Rate 0.0620 kg/ha) was 4.0 and the “herbicidal effect rating, SAGPY” value (Sagittaria pygmaea, L.; Rate 0.1250 kg/ha) was 4.0. The “herbicidal effect rating, SAGPY” value (Sagittaria pygmaea, L.; Rate 0.2500 kg/ha) was 4.0, the “herbicidal effect rating ORYSAT” value ([3]; Rate 0.0320 kg/ha) was 3.0 and the “herbicidal effect rating ORYSAT” value ([3]; Rate 0.0620 kg/ha) was 3.0. For the same compound, the “herbicidal effect rating ORYSAT” value ([3]; Rate 0.1250 kg/ha) was 3.0, the “herbicidal effect rating ORYSAT” value ([3]; Rate 0.2500 kg/ha) was 3.0 and the “herbicidal effect rating, ECHORC” value ([4]; Rate 0.0320 kg/ha) was 2.0. For the same compound, the “herbicidal effect rating, ECHORC” value ([4]; Rate 0.0620 kg/ha) was 3.0, the “herbicidal effect rating, ECHORC” value ([4]; Rate 0.1250 kg/ha) was 3.0 and the “herbicidal effect rating, ECHORC” value ([4]; Rate 0.2500 kg/ha) was 3.0.
For `COC(=O)COc1ccc(-c2nsc3ccc(-n4c(=O)cc(C(F)(F)F)n(C)c4=O)cc23)cc1` [Example 257, Acetic acid, {p-{5-[3,6-dihydro-3-methyl-2,6-dioxo-4-(trifluoromethyl)-1(2H)-pyrimidinyl)-1,2-benzisothiazol-3-yl}phenoxy}-, methyl ester], the “CYPIR herbicidal effect rating” value (Cyperus iria; Rate 0.0320 kg/ha) was 0.0, the “CYPIR herbicidal effect rating” value (Cyperus iria; Rate 0.0620 kg/ha) was 2.0 and the “CYPIR herbicidal effect rating” value (Cyperus iria; Rate 0.1250 kg/ha) was 4.0. The “CYPIR herbicidal effect rating” value (Cyperus iria; Rate 0.2500 kg/ha) was 6.0, the “MOOVA herbicidal effect rating” value ([1]; Rate 0.0320 kg/ha) was 8.0 and the “MOOVA herbicidal effect rating” value ([1]; Rate 0.0620 kg/ha) was 9.0. For the same compound, the “MOOVA herbicidal effect rating” value ([1]; Rate 0.1250 kg/ha) was 9.0, the “MOOVA herbicidal effect rating” value ([1]; Rate 0.2500 kg/ha) was 9.0 and the “CYPSE herbicidal effect rating” value ([2]; Rate 0.0320 kg/ha) was 0.0. The “CYPSE herbicidal effect rating” value ([2]; Rate 0.0620 kg/ha) was 0.0, the “SAGPY herbicidal effect rating” value (Sagittaria pygmaea, L.; Rate 0.0320 kg/ha) was 0.0 and the “SAGPY herbicidal effect rating” value (Sagittaria pygmaea, L.; Rate 0.0620 kg/ha) was 0.0. The “SAGPY herbicidal effect rating” value (Sagittaria pygmaea, L.; Rate 0.1250 kg/ha) was 0.0, the “SAGPY herbicidal effect rating” value (Sagittaria pygmaea, L.; Rate 0.2500 kg/ha) was 0.0 and the “ORYSAT herbicidal effect rating” value ([3]; Rate 0.0320 kg/ha) was 0.0. For the same compound, the “ORYSAT herbicidal effect rating” value ([3]; Rate 0.0620 kg/ha) was 0.0, the “ORYSAT herbicidal effect rating” value ([3]; Rate 0.1250 kg/ha) was 1.0 and the “ORYSAT herbicidal effect rating” value ([3]; Rate 0.2500 kg/ha) was 2.0. The “ECHORC herbicidal effect rating” value ([4]; Rate 0.0320 kg/ha) was 0.0, the “ECHORC herbicidal effect rating” value ([4]; Rate 0.0620 kg/ha) was 0.0 and the “ECHORC herbicidal effect rating” value ([4]; Rate 0.1250 kg/ha) was 0.0. For the same compound, the “ECHORC herbicidal effect rating” value ([4]; Rate 0.2500 kg/ha) was 0.0.
